Patent US10183962B2, “Synthetic oligomers of Neisseria meningitis serogroup X and process of preparing them” (MSD WELLCOME TRUST HILLEMAN LA[…]. LTD., priority 2014, dated 2019)

Test system: rabbit antiserum against N. meningitidis serogroup X (anti-Men-X antibodies binding to bacterial Men-X polysaccharide)
Assay: competition (inhibition) ELISA, antigenicity of synthetic Men-X tetramer and its TT conjugate
Conditions: antigen at 10-1000 μg oligosaccharide/ml; antiserum diluted eight thousand fold; relative to no antigen control; FIG. 1, alpha anomer, triplicate

Substance: 6-Aminohexyl (2-acetamido-2-deoxy-α-D-glucopyranosyl phosphate)-(1→4)-(2-acetamido-2-deoxy-α-D-glucopyranosyl phosphate)-(1→4)-(2-acetamido-2-deoxy-α-D-glucopyranosyl phosphate)-(1→4)-2-acetamido-2-deoxy-α-D-glucopyranoside, tris-sodium salt [Men X Tetramer 1]
- percentage inhibition of binding of anti-Men-X antibodies to bacterial Men-X polysaccharide coated on plate: up to 68%
